Test results from patent US10370436B2, “Anti-pseudomonas Psl binding molecules and uses thereof” (priority 2011, dated 2019).

Test system: Psl on in vivo passaged P. aeruginosa strains
Test: Flow cytometry of in vivo passaged P. aeruginosa
Assay type: binding, Pseudomonas aeruginosa
Excerpt: For IgG expression, the VH and VL chains of selected antibodies were cloned into human IgG1 expression vectors, co-expressed in HEK293 cells, and purified by protein A affinity chromatography as described (Persic, L., et al., Gene 187, 9-18 (1997)). Human IgG1 antibodies made with the variable regions from these selected serotype independent phage were confirmed for P. aeruginosa specificity and prioritized for subsequent analysis by whole cell binding to dominant clinically relevant serotypes by FACS analysis (FIG. 1F), since this method is more stringent than ELISA. For the flow cytometry based binding assays mid-log phase P. aeruginosa strains were concentrated in PBS to an OD650 of 2.0. After incubation of antibody (10 μg/mL) and bacteria (˜1×10^7 cells) for 1 hr at 4° C. with shaking, washed cells were incubated with an ALEXA FLUOR […] goat anti-human IgG antibody (Invitrogen, Carlsbad, Calif.) for 0.5 hr at 4° C. Washed cells were stained with BACLIGHT™ green bacterial stain as recommended (Invitrogen, Carlsbad, Calif.). Samples were run on a LSR II flow cytometer (BD Biosciences) and analyzed using BD FacsDiva (v. 6.1.3) and FlowJo (v. 9.2; TreeStar).
To test if Psl expression in vivo is maintained, mice were injected intraperitoneally with P. aeruginosa isolates followed by harvesting of bacteria by peritoneal lavage four hours post-infection. The presence of Psl was analyzed with a control antibody and Cam-003 by flow cytometry as conditions for antibody binding are more stringent and allow for quantification of cells that are positive or negative for Psl expression. For ex vivo binding, bacterial inocula (0.1 ml) was prepared from an overnight TSA plate and delivered intraperitoneally to BALB/c mice. At 4 hr. following challenge, bacteria were harvested, RBCs lysed, sonicated and resuspended in PBS supplemented with 0.1% Tween-20 and 1% BSA. Samples were stained and analyzed as previously described in Example 1. […] Within the inocula, Psl was not detected for strain 6077 and was minimally detected for strains PAO1 (O5) and 6206 (O11-cytotoxic).
The level of Psl expression/accessibility on the surface of P. aeruginosa strains PAO1 and 6206 in the acute pneumonia model was also assessed. Bacteria prepared from overnight-incubated, confluent plates, as described above, were intranasally administered to BALB/c mice. At 4 and 24 hours post-infection, bacteria were recovered from the lungs by bronchoalveolar lavage. Samples were stained and analyzed as previously described in Example 1.

Substance: Cam-003: human IgG1 anti-Psl monoclonal antibody, VH SEQ ID NO: 1 and VL SEQ ID NO: 2
- staining of bacteria by flow cytometry (6206, bronchoalveolar lavage 4 hours post-infection, FIG. 5D): minimal
- staining of bacteria by flow cytometry (PAO1, bronchoalveolar lavage 4 hours post-infection, FIG. 5D): Strong Cam-003 staining
- staining of bacteria by flow cytometry (PAO1 and 6206, bronchoalveolar lavage 24 hours post-infection, FIG. 5E): strong Cam-003 staining
- reactivity by flow cytometry after in vivo passage (PAO1ΔpslA): unable to react with Cam-003
- staining of bacteria by flow cytometry (three wild type strains harvested by peritoneal lavage 4 hr after intraperitoneal challenge, FIG. 5C): strong Cam-003 staining
